Reference: patent publication US11667621B2, “Antiestrogen compounds” (STEVENS INSTITUTE OF TECHNOLOGY, priority 2018, dated 2023)
Substitutions are numbered along the chain they refer to.

What was measured:
Experiment in all cases: Luciferase assay, overexpressed ER (3×-ERE-TATA-Luciferase reporter)
Assay type in all cases: cell-based
HA-ERα Y537S = target: T1, HA-ERα Y537S (Homo sapiens, UniProt P03372, Y537S); conditions: compound concentration 1 μM, 24 hours
T1 construct: HA; expressed in transfected cells
T1 sequence (P03372 1-595 Y537S): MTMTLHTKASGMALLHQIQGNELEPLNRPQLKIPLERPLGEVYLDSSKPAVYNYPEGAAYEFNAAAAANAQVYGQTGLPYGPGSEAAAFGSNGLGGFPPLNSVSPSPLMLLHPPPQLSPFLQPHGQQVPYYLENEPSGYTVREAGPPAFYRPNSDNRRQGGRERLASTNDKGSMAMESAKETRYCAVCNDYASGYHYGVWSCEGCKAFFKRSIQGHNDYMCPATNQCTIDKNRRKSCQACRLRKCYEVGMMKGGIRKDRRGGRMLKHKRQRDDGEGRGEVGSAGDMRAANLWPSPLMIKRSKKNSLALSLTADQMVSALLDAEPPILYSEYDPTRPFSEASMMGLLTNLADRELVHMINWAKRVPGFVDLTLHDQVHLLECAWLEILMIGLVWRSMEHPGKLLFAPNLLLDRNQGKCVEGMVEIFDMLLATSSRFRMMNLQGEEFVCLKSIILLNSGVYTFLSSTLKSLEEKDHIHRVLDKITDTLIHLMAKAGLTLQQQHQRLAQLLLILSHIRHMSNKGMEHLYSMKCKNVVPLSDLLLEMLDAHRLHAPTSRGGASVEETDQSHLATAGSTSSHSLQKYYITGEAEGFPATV
Description: (§1) Luciferase assays were performed to determine the efficacy of the example compounds at inhibiting ER or its mutants' ability to activate transcription of genes.
(§2) Cells were plated at a density of 0.15×10^6 per well of 24 well plates one day prior to transfection. Cells were transfected with 125 ng (per well) of HA-ERα wild type or mutants, 315 ng (per well) of 3×-ERE-TATA-Luciferase reporter and 50 ng (per well) of pRL-TK Renilla Luciferase plasmid, using Xtremegene (Roche). The cells were treated with the various compounds or Fulvestrant at the indicated doses a day after transfection for 24 hours and luciferase activities were determined using the Dual-Luciferase® Reporter Assay System (Promega) according to manufacturer's instructions. Luciferase bioluminescence measurements were performed with the Veritas™ Microplate Luminometer (Promega). All experiments were conducted in triplicate and the Firefly luciferase activity was normalized with the Renilla luciferase activity of each sample.

HA-ERα wild type = target: T2, HA-ERα wild type (Homo sapiens, UniProt P03372); conditions: compound concentration 1 μM, 24 hours; read-out: Overexpressed ER (% Inhibition) WT
T2 construct: HA; expressed in transfected cells
T2 sequence (P03372 1-595): T1 sequence (P03372 1-595 Y537S) with S537Y
Description: as §1, §2

HA-ERα L536R = target: T3, HA-ERα L536R (Homo sapiens, UniProt P03372, L536R); conditions: compound concentration 1 μM, 24 hours
T3 construct: HA; expressed in transfected cells
T3 sequence (P03372 1-595 L536R): T1 sequence (P03372 1-595 Y537S) with L536R, S537Y
Description: as §1, §2

HA-ERα D538G = target: T4, HA-ERα D538G (Homo sapiens, UniProt P03372, D538G); conditions: compound concentration 1 μM, 24 hours
T4 construct: HA; expressed in transfected cells
T4 sequence (P03372 1-595 D538G): T1 sequence (P03372 1-595 Y537S) with S537Y, D538G
Description: as §1, §2

Structure (SMILES) | inhibition at 1 µM (HA-ERα Y537S) [%] | inhibition at 1 µM (HA-ERα wild type) [%] | inhibition at 1 µM (HA-ERα L536R) [%] | inhibition at 1 µM (HA-ERα D538G) [%]
O=C(NCCCCOc1ccc(Oc2c(-c3ccc(O)cc3)sc3cc(O)ccc23)cc1)C1CCC1 [Example 28, N-(4-(4-((6-Hydroxy-2-(4-hydroxyphenyl)benzo[b]thiophen-3-yl)oxy)phenoxy)butyl)cyclobutanecarboxamide] | -64 | 13 | 43 | 60
O=C(NCCCCOc1ccc(C(=C2C3CC4CC(C3)CC2C4)c2ccc(O)cc2)cc1)C1CC1 [Example 31, N-(4-(4-(Adamantan-2-ylidene(4-hydroxyphenyl)methyl)phenoxy)butyl)cyclopropanecarboxamide] |  | 36 |  | 
Cc1c(-c2ccc(O)cc2)n(Cc2ccc(OCCCCNC(=O)C34CC5CC(CC(C5)C3)C4)cc2)c2ccc(O)cc12 [Example 21, N-(4-(4-((5-Hydroxy-2-(4-hydroxyphenyl)-3-methyl-1H-indol-1-yl)methyl)phenoxy)butyl)adamantane-1-carboxamide] |  | 82 |  | 
O=C(NCCCCOc1ccc(C(=C2CCCCC2)c2ccc(O)cc2)cc1)[C@H]1CC[C@H](C(F)(F)F)CC1 [Example 25, (trans)-N-(4-(4-(Cyclohexylidene(4-hydroxyphenyl)methyl)phenoxy)butyl)-4-(trifluoromethyl)cyclohexanecarboxamide] | -39 | 77 | 36 | 42
O=C(NCCCCOc1ccc(C(=C2C3CC4CC(C3)CC2C4)c2ccc(O)cc2)cc1)c1ccc(C(F)(F)F)cc1 [Example 33, N-(4-(4-(Adamantan-2-ylidene(4-hydroxyphenyl)methyl)phenoxy)butyl)-4-(trifluoromethyl)benzamide] |  | 79 |  | 
O=C(COc1cccc2c1C(=O)N(C1CCC(=O)NC1=O)C2=O)NCCCCCCOc1ccc(C(=C2C3CC4CC(C3)CC2C4)c2ccc(O)cc2)cc1 (stereo not drawn) [Example 16, N-(6-(4-(Adamantan-2-ylidene(4-hydroxyphenyl)methyl)phenoxy)hexyl)-2-((2-(2,6-dioxopiperidin-3-yl)-1,3-dioxoisoindolin-4-yl)oxy)acetamide] | -65 | 81 | 64 | 61
O=C(NCCCCOc1ccc(C(=C2CCCCC2)c2ccc(O)cc2)cc1)C12CC3CC(CC(C3)C1)C2 [Example 26, N-(4-(4-(Cyclohexylidene(4-hydroxyphenyl)methyl)phenoxy)-butyl)adamantane-1-carboxamide] | -32 | 52 | 69 | 65
O=C(COc1cccc2c1C(=O)N(C1CCC(=O)NC1=O)C2=O)NCCCCOc1ccc(C(=C2C3CC4CC(C3)CC2C4)c2ccc(O)cc2)cc1 (stereo not drawn) [Example 15, N-(4-(4-(Adamantan-2-ylidene(4-hydroxyphenyl)methyl)phenoxy)butyl)-2-((2-(2,6-dioxopiperidin-3-yl)-1,3-dioxoisoindolin-4-yl)oxy)acetamide] | -51 | 85 | 82 | 93
O=C(CCC1CCCCC1)NCCCCOc1ccc(C(=C2C3CC4CC(C3)CC2C4)c2ccc(O)cc2)cc1 [Example 34, N-(4-(4-(Adamantan-2-ylidene(4-hydroxyphenyl)methyl)phenoxy)butyl)-3-cyclohexylpropanamide] |  | 65 |  | 
O=C(NCCCCOc1ccc(C(=C2CCCCC2)c2ccc(O)cc2)cc1)C1CCCCC1 [Example 23, N-(4-(4-(Cyclohexylidene(4-hydroxyphenyl)methyl)phenoxy)butyl)-cyclohexanecarboxamide] | -169 | -25 | 43 | 0
O=C1CCC(N2C(=O)c3cccc(OCCOCCOCCOc4ccc(C(=C5C6CC7CC(C6)CC5C7)c5ccc(O)cc5)cc4)c3C2=O)C(=O)N1 (stereo not drawn) [Example 18, 4-(2-(2-(2-(4-(Adamantan-2-ylidene(4-hydroxyphenyl)methyl)phenoxy)-ethoxy)ethoxy)ethoxy)-2-(2,6-dioxopiperidin-3-yl)isoindoline-1,3-dione] | -75 | 80 | 84 | 86
O=C(CCC1CCCCC1)NCCCCOc1ccc(Oc2c(-c3ccc(O)cc3)sc3cc(O)ccc23)cc1 [Example 30, 3-Cyclohexyl-N-(4-(4-((6-hydroxy-2-(4-hydroxyphenyl)benzo[b]thiophen-3-yl)oxy)phenoxy)butyl)propanamide] |  | 61 |  | 
O=C(NCCCCOc1ccc(C(=C2C3CC4CC(C3)CC2C4)c2ccc(O)cc2)cc1)C1CC1(F)F (stereo not drawn) [Example 32, N-(4-(4-(Adamantan-2-ylidene(4-hydroxyphenyl)methyl)phenoxy)butyl)-2,2-difluorocyclopropanecarboxamide] |  | 48 |  | 
O=C(NCCCCOc1ccc(C2c3ccc(O)cc3CCC2c2ccccc2)cc1)[C@H]1CC[C@H](C(F)(F)F)CC1 (stereo partly drawn) [Example 22, (trans)-N-(4-(4-(6-Hydroxy-2-phenyl-1,2,3,4-tetrahydronaphthalen-1-yl)phenoxy)butyl)-4-(trifluoromethyl)cyclohexanecarboxamide] |  | -130 |  | 
Cc1c(-c2ccc(O)cc2)n(Cc2ccc(OCCCCNC(=O)[C@H]3CC[C@H](C(F)(F)F)CC3)cc2)c2ccc(O)cc12 [Example 20, (trans)-N-(4-(4-((5-Hydroxy-2-(4-hydroxyphenyl)-3-methyl-1H-indol-1-yl)methyl)phenoxy)butyl)-4-(trifluoromethyl)cyclohexanecarboxamide] |  | 83 |  | 
